System: community-dwelling elderly patients diagnosed with Alzheimer's disease (behavioral agitation)
Experiment: 8-week, open-label, single-arm study of oxcarbazepine for behavioral agitation in Alzheimer's disease patients
Format: in vivo, human
Conditions: for change from baseline in Cohen-Mansfield Agitation Inventory (CMAI) score (mean±SD): baseline 60.6±14.7, mean oxcarbazepine daily dose 340 mg/day (range 150-552 mg/day), p≦0.0002
Procedure: In an 8-week, open-label, single-arm study are recruited twenty-six patients community-dwelling elderly patients (>63 years of age) diagnosed with Alzheimer's disease. After a 1-week screening period to assess each patient's agitation level, oxcarbazepine 150 mg/day treatment is initiated and titrated by 150 mg/day every 3-7 days to a maximum of 1200 mg/day with a mean oxcarbazepine daily dose of 340 mg/day (range 150-552 mg/day). The primary outcome measure is improvement in behavioral agitation, based on the 38-item Cohen-Mansfield Agitation Inventory (CMAI) that evaluates the prevalence of pathologic and disruptive agitated behavior. Secondary evaluations include effects on neuropsychiatric symptoms, cognitive impairment, global functioning, and tolerability.
Significant reductions in CMAI score from baseline (mean±SD: 60.6±14.7) occur at each time point (mean±SD change from baseline on Day 14: −16.9±19.7, Day 28: −22.6±19.0, Day 56: −20.8±19.6; all p≦0.0002). […] Cognitive performance and global functioning remain stable throughout the study.

[1] = patients with Alzheimer's disease, open-label prospective study

For `NC(=O)N1c2ccccc2CC(=O)c2ccccc21` [oxcarbazepine, 10-oxo-10,II-dihydro-5H-dibenz(b,f)azepine-5-carboxamide], the “change from baseline in Cohen-Mansfield Agitation Inventory (CMAI) score (mean±SD)” value (“change from baseline … (mean±SD)” below) (Day 14) was −16.9±19.7, the “change from baseline … (mean±SD)” value (Day 28) was −22.6±19.0 and the “change from baseline … (mean±SD)” value (Day 56) was −20.8±19.6. The “mean Neuropsychiatric Inventory score” value (each time point, all p≦0.02 versus screening) was “Significant improvement”, the “efficacy in the treatment of agitation” value [1] was “effective” and the tolerability [1] was “generally well tolerated”. For the same compound, the cognitive performance (throughout the 8-week study) was “remain stable” and the global functioning (throughout the 8-week study) was “remain stable”.

— patent US20090192142A1, “USE OF CARBAMAZEPINE DERIVATIVES FOR THE TREATMENT OF AGITATION IN DEMENTIA PATIENTS” (priority 2004, published 2009)
